The test system of assay [1] is visceromotor response (VMR) elicited by colorectal distension (CRD). The assay is described as follows: visceromotor response (VMR) elicited by colorectal distension (CRD) in conscious rats. Particulars: for VMR to noxious CRD: CRD 80 mmHg, naive rats; for effect on VMR to CRD: 1-100 nmol, hydrochloride. Format: in vivo, Sprague-Dawley rats. As for the experimental part: Adult male Sprague-Dawley rats (250-350g, Harlan, San Diego, CA) served as animal subjects. Rats were housed 5-6 per cage, allowed free access to food and water, and were maintained on a 12 h light-dark cycle (lights on between 06.00 and 18.00 h).
Rats were deeply anesthetized with pentobarbital sodium (45 mg/kg, Nembutal, Abbott Labs, North Chicago, IL) administered intraperitoneally. […] The electrode leads were tunneled subcutaneously and exteriorized at the nape of the neck for future access. Some animals were also implanted with venous catheters in the femoral vein to enable i.v. administration of drugs. For intrathecal (i.t.) drug administration, an i.t. catheter (PE-10 tubing, 8.5 cm long) was inserted through the dura overlying the atlanto-occipital junction and threaded to the level of the lumbar enlargement (Yaksh and Rudy, 1976). The venous or i.t. catheter was surgically anchored to musculature at the back of the neck, and externalized with the electrode leads. The wounds were closed in layers with 4-0 silk. Rats were housed singly and allowed to recuperate for at least 3-5 days prior to testing.
The stimulus employed has been previously described (Gebhart and Sengupta, 1996). Briefly, the descending colon and rectum were distended by pressure-controlled air inflation of a 6 cm long flexible latex balloon tied around a flexible tube (Tygon). The balloon was lubricated (Surgilube, E. Fougera and Co., Melville, NY), inserted intra-anally and anchored by taping the balloon catheter to the base of the tail. […] The behavioral response quantified was the visceromotor response, a contraction of the abdominal and hindlimb (Ness and Gebhart, 1988). EMG activity in the external oblique musculature was quantified by computing the average amplitude (Dr. Alfred Bayati Astra Hässle). Each distension trial lasted 60 s and EMG activity was quantified 20 s before distension (baseline), during distension, and 20 s after distension. The increase in EMG amplitude during distension over baseline was recorded as the response.
On the day of testing, animals were briefly anesthetized with Metophane®, and the balloon was inserted and secured in place as described above. Rats were allowed to recover for 30-40 min, following which two stable control responses to CRD (80 mmHg, 20 s, 4 min interstimulus interval) were obtained.
Drugs were administered i.v. into the femoral vein through the indwelling catheter. All doses were administered in a volume of up to 230 µl followed by a flush with 100 µl of preservative-free saline over a period of 30s. Dose response curves were generated using a cumulative dosing paradigm. The first i.v. injection was made 2 min after the second control response. Subsequent doses were injected 8 min apart, thus allowing two distensions after each dose. Data are reported as the average response to the two distensions.
In one group of animals, memantine was administered to the lumbar enlargement through the indwelling i.t. catheter with the aid of a […] injection needle connected to a 25 ul Hamilton syringe by a length of polyethylene tubing (PE-10). All doses were administered in a volume of 5 µl followed by a flush with 10 µl of preservative-free saline over a period of 1 min. The progress of the injection was continuously monitored by following the movement of an air bubble in the tubing. The dose response curve was generated using a cumulative dosing paradigm. The first i.t. injection was made 2 min after the second control response. Subsequent doses were injected 8 min apart, thus allowing two distensions after each dose. Data are reported as the average response to the two distensions. […]

In assay [2] the test system is pelvic afferent nerve activity. Description: pelvic afferent nerve activity elicited by colorectal distension in anesthetized rats. The assay is classed as in vivo, Sprague-Dawley rats. The conditions noted are these: intra-arterial, cumulative 1, 3, 6 and 10 mg/kg; CRD 80 mm Hg. As for the experimental part: General procedures: Male Sprague-Dawley rats 425-450 g) were anesthetized initially with sodium pentobarbital (40-45 mg/kg ip) and maintained with α-chloralose (60 mg kg^-1 h^-1). The trachea was cannulated for mechanical ventilation with room air. The left common carotid artery was cannulated for recording blood pressure. The femoral artery and vein were catheterized for injection of drug and anesthetic, respectively. Rats were paralyzed with pancuronium bromide (0.3 mg/kg i.v.) and ventilated with room air (55-60 strokes/min and 3-4 ml stroke volume). Supplemental doses of pancuronium bromide (0.2-0.3 mg kg^-1 h^-1) were given to maintain paralysis during the course of experiment. The mean arterial blood pressure was monitored continuously and maintained at >80 mm Hg with supplemental intravenous injection of 5% dextrose in saline given in a bolus of 1 to 1.5 ml as required. […]
Recordings of afferent nerve action potentials: The S1 dorsal root was identified and decentralized at its entry to the spinal cord. […] Electrical activity of single units was recorded monopolarly by placing a teased fiber over one arm of a bipolar silver-silver chloride electrode; a fine strand of connective tissue was placed across the other pole of the electrode. […]

Where [3] appears, read: i.v., 1-10 mg/kg, conscious rats (figure legends).
The mark [4] stands for this setting: i.v., most effective dose tested 60 mg/kg.
Setting [5] is: intrathecal (i.t.), up to a dose of 300nmol, conscious rats.

Structures can show the parent of a compound that is named as a salt.

Consider `CCNC(Cc1cnccn1)c1ccccc1` (single isomer, unassigned; (+)) [Compound 3, (+) N-ethyl-1-phenyl-2-(3-pyrazine)ethanamine hydrochloride], for which the “effect on viscero-motor responses (VMR) to noxious colorectal distension” value (shortened to “effect on viscero-motor responses (VMR)”) in assay [1] (setting [3]) is “dose-dependently (1-10 mg/kg) attenuated VMR”. Also, the “VMR to noxious CRD” value in assay [1] (setting [4]) was 5 % of control.
On to `N=C(N)c1cccc(CC(N)c2ccccc2)n1` (stereo not shown) [Compound 1, 2-amidino-6-(2-amino-2-phenyl)-ethylpyridine trihydrochloride], for which the entries for the “effect on viscero-motor responses (VMR)” value in assay [1] (setting [3]) and in assay [1] (setting [5]) were “dose-dependently (1-10 mg/kg) attenuated VMR” and “None of the three compounds attenuated VMR”, respectively. Also, the “VMR to noxious CRD” value in assay [1] (i.v., most effective dose tested (dose not given)) is on record as 13 % of control.
On to `Cl.NCC(=O)NC(Cc1ccccc1)c1ccccc1` (stereo not shown) [Compound 2, 2-amino-N-(1,2-diphenylethyl)acetamide hydrochloride], for which the “effect on viscero-motor responses (VMR)” value in assay [1] (setting [3]) is listed as “dose-dependently (1-10 mg/kg) attenuated VMR”; in assay [1] (setting [5]) it was “None of the three compounds attenuated VMR”. The “VMR to noxious CRD” value in assay [1] (setting [4]) is recorded as 40 % of control.
`Cl.NC(Cn1cccn1)c1ccccc1` (stereo not drawn) [Compound 4, alpha-phenyl-1H-pyrazole-1-ethanamine hydrochloride]: the entries for the “effect on viscero-motor responses (VMR)” value in assay [1] (setting [3]) and in assay [1] (setting [5]) were “dose-dependently (1-10 mg/kg) attenuated VMR” and “None of the three compounds attenuated VMR”, respectively. For the same compound, the “VMR to noxious CRD” value in assay [1] (i.v., most effective dose tested 100 mg/kg) is 10 % of control.
With `CC12CC3CC(C)(C1)CC(N)(C3)C2` [memantine, memantine hydrochloride, reference compound], the “pelvic nerve activity elicited by distention of the colon” value in assay [2] is on record as “reduced, in a dose-dependent fashion”. Further, the “effect on viscero-motor responses (VMR)” value in assay [1] (setting [3]) is “dose-dependantly attenuate VMR”. In addition, the “VMR to noxious CRD” value in assay [1] (i.v., most effective dose tested 10 mg/kg) is given as 28 % of control. Moreover, the “effect on VMR to CRD” value in assay [1] (intrathecal (i.t.), conscious rats) was “without effect”; in assay [1] (intrathecal (i.t.), conscious rats, listed as Memantine) it was “did not attenuate VMR”.
